Measured values taken from BindingDB's records for doi:10.1021/jm060662k (Abbott Laboratories, 2006).

Biological target: T1, D(4) dopamine receptor (Homo sapiens, UniProt P21917)
T1 sequence (P21917 whole entry): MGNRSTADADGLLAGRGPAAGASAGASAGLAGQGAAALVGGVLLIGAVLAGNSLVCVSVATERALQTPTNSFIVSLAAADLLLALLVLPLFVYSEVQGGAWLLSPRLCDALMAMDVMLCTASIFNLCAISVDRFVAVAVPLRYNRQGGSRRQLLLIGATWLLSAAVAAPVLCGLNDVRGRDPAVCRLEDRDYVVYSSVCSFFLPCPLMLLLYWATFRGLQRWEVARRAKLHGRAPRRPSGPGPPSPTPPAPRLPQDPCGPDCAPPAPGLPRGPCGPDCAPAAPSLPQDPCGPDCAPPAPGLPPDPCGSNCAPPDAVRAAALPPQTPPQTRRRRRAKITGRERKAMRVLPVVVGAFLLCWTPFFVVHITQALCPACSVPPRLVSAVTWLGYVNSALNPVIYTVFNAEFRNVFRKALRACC
Assay: Agonist activity at human D4.4 receptor in HEK293 cells coexpressing G-alpha-qo5 by FLIPR

EC50: 12 nM
Compound: c1ccc(N2CCN(Cc3nc4ccccc4[nH]3)CC2)nc1 [2-((4-(pyridin-2-yl)piperazin-1-yl)methyl)-1H-benzo[d]imidazole]
